Measurements published in patent publication US20130345249A1, “Formulations for the prevention and treatment of Wolbachia-related disease” (priority 2011, published 2013).

Tests used:
Wolbachia [1] = assay: Microscopy-based high-throughput screen in Wolbachia-infected Drosophila tissue culture cells; format: cell-based; conditions: 100 uM in media, 3 days incubation
Procedure: In collaboration with the microscope company Molecular Devices, we optimized journaling software that analyzes the level of cytoplasmic DAPI (Wolbachia) fluorescence per cell in all wells of the plate. […] In this pilot, compounds were added to Wolbachia-infected cells at a final concentration of 100 uM in media and allowed to incubate for 3 days. Cells were then fixed, stained, imaged, and analyzed by automated machinery.

Brugia malayi = Brugia malayi drug feeding assay (worm mortality); format: in vivo
Description: Small molecules of interest found by the primary tissue culture screen must be tested in animal models to determine their relevance to Wolbachia in vivo. Because Wolbachia are vital endosymbionts of Brugia malayi worms that cause Elephantiasis, the next important step was to validate whether compounds found in the high-throughput screen could affect the viability of those worms. To assay this, we performed a pilot feeding assay by distributing Brugia malayi into 12-well plates containing tissue culture media and different compounds added to a final concentration of 100 uM. […] In this feeding assay, we observed that worms fed with pararosanaline pamoate ceased movement within 2 hours, whereas all other treatments took substantially longer to affect the worms (FIG. 3). Our preliminary dose-response tests of pararosanaline pamoate indicate that the lethal feeding dose lies between 25 uM and 10 uM.

Wolbachia [2] = assay: Confocal imaging of Wolbachia in treated Brugia malayi worms; format: in vivo
Wolbachia [3] = assay: Wolbachia titer in ovarian tissues of fed D. melanogaster (confocal microscopy, image-based quantification); format: in vivo, Wolbachia (in Drosophila melanogaster)
Procedure: As the next validation step, it was important to determine whether the compounds found in our screen can cure a host of Wolbachia while also permitting host viability. To investigate this, we first performed a feeding assay using Wolbachia-infected Drosophila melanogaster flies. Flies were provided with fly food containing pararosanaline pamoate at concentrations of 100 uM or less, and viability was scored over time. […] To then determine whether the treatment affected the quantity of Wolbachia carried by the D. melanogaster host, we fed pararosaniline pamoate to Wolbachia-infected fruit flies for 3 days and analyzed Wolbachia titer in ovarian tissues. This was performed through use of confocal microscopy and image-based bacterial quantification software.

SMILES	cytoplasmic DAPI (Wolbachia) fluorescence per cell / hit in tissue culture screen (Wolbachia [1])	cytoplasmic DAPI (Wolbachia) fluorescence per cell / hit in tissue culture screen (Wolbachia [1]; listed as pararosanaline pamoate)	time until worms ceased movement (Brugia malayi; 100 uM in tissue culture media, 12-well plates) [h]	worm viability after treatment (FIG. 3) (Brugia malayi; drug feeding assay)	number of Wolbachia carried by host, worms killed by drug vs untreated worms (Wolbachia [2])	Wolbachia titer in Drosophila oocytes (FIG. 5) (Wolbachia [3]; average quantity within a single focal plane of oocytes)	Wolbachia titer relative to control levels (Wolbachia [3]; fed for 3 days, ovarian tissues (oocytes), preliminary) [%]
COC(=O)[C@H]1[C@H]2C[C@H]3c4[nH]c5cc(OC)ccc5c4CCN3C[C@H]2C[C@@H](OC(=O)c2cc(OC)c(OC)c(OC)c2)[C@@H]1OC [Isoreserpine]	identified by the screening methods of the invention						
CC(C)(C)CC(C)(C)c1ccc(O)c(Cc2ccc(Cl)cc2Cl)c1 [Clofoctol]	identified by the screening methods of the invention						
Cc1ncc(CO)c(CO)c1O.Cl [pyroxidine HCl]	found in the pilot tissue culture screen						
N=C1C=CC(=C(c2ccc(N)cc2)c2ccc(N)cc2)C=C1 [Pararosaniline Pamoate]	identified by the screening methods of the invention	found in the pilot tissue culture screen	≤ 2	Inviable	no visible difference	reduced	60
